Laboratory results from patent US6696439B1, “5-HT1F agonists” (Eli Lilly and Company, priority 1999, dated 2004).

Row | melting point [°C] | Compound
1 | 211 to 212 | Cc1oc2ccc(NC(=O)c3cccs3)nc2c1CCN(C)C.O=C(O)C(=O)O
2 | 68 to 69 | CN(C)CCc1coc2ccc(NC(=O)c3cccs3)nc12.O=C(O)C(=O)O
3 | 119 to 120 | Cc1oc2ccc(NC(=O)c3ccccc3)nc2c1CCN(C)C
4 | 168 to 170 | CCC(=O)Nc1ccc2oc(C)c(CCN(C)C)c2n1.O=C(O)C(=O)O
5 | 136 to 138 | Cc1oc2ccc(NC(=O)c3ccc(F)cc3)nc2c1CCN(C)C.O=C(O)C(=O)O
6 | 65 to 66 | CN(C)CCc1coc2ccc(NC(=O)c3ccccc3)nc12.O=C(O)C(=O)O
7 | 124 to 126 | CN(C)CCc1coc2ccc(NC(=O)c3ccc(F)cc3)nc12.O=C(O)C(=O)O
8 | 153 to 155 | CCC(=O)Nc1ccc2occ(CCN(C)C)c2n1.O=C(O)C(=O)O
